Laboratory results taken from publication PMC3017052, “A Novel Peptide Derived from Human Apolipoprotein E Is an Inhibitor of Tumor Growth and Ocular Angiogenesis” (PLoS ONE, 2011).

Legend:
HUVEC = type: cell-based, human; details: 48 h
Experimental: (§1) To confirm that apoEdp affects cell survival, cell viability was determined using the cell titer 96®AQuous One solution cell proliferation kit. ApoEdp treatment of HUVECs induced a dose-dependent inhibition of cell viability (Fig. 1A). […] To determine whether apoEdp suppresses tumor growth by directly affecting tumor cells, we performed a cell viability assay using human breast cancer MDA-MB-231 cell line in vitro and cell titer 96®AQuous One solution cell proliferation kit.
(§2) Figure 1 ApoEdp affects HUVEC survival but not MDA-MB-231. A. HUVEC: ApoEdp has a significant effect on VEGF-induced HUVEC viability. Cells were treated with apoEdp at the indicated concentrations and incubated with constant 50 ng/mL VEGF for 48 hr. All values were normalized to cell control of no VEGF and no apoEdp. Cell viability values (mean ± SEM) are expressed as % of the value of the VEGF control. B. MDA-MB-231: ApoEdp has no effect on MDA-MB-231viability. ApoEdp has no significant effect on MDA-MB-231 survival. Cells were treated with apoEdp at the indicated concentrations and incubated at 37°C for 2 days. Cell viability values (mean ± SEM) are expressed as % of the value of the control (untreated cells). […]
The effect of apoEdp on ED survival was evaluated. […] Two days later, cell numbers were determined using the CellTiter96 AQueous One solution cell proliferation kit (Promega, Madison, WI).

MDA-MB-231 cells = type: cell-based, human; details: 48 h
Experimental: as §1
as §2, with “Cells were treated with apoEdp at the indicated concentrations and incubated at 37°C for 2 days.” left out
Cell survival studies were carried out using the CellTiter96 AQueous One solution cell survival assay. […] The cells were incubated for 48 hr and then the AQueous One solution was added to the samples and measured at 490 nm.

[1] = tested on: MDA-MB-231 tumor xenografts; assay: Xenograft tumor growth assay in nude mice; type: in vivo
Experimental: In order to assess the in vivo effect of apoEdp on tumor growth, we established subcutaneous human breast cancer MDA-MB-231 tumor xenografts in nude mice. Once tumor size became ∼100 mm^3 in approximately 10 days, mice were randomly divided into two groups, and treated with PBS or apoEdp at 40 mg/kg/day for three consecutive days.
Figure 6 ApoEdp inhibits tumor growth in vivo. MDA-MB-231 breast cancer cells were used for anti-tumor studies. A suspension of 3×10^6 cells in 0.1 mL of PBS was injected in the right dorsal flank. Tumors were monitored weekly in two diameters with digital calipers. Tumor volumes were determined using A×B^2×0.52 (where A is the longest and B is the shortest diameter). Tumors were allowed to grow to ∼100 mm^3 and mice were randomized. Single intralesional administration daily of PBS or 40 mg/kg/day of apoEdp for 3 consecutive days was performed and then stopped. Representative photographs of mouse xenograft treated with (A) apoEdp or PBS are shown.
Female nu/nu mice (8–12 weeks old, weighing ∼20 g) were obtained from […] (Harlan, Indianapolis, IN). […] The growth of the tumor xenograft was evaluated by determining the tumor volume using digital calipers every 7 days. Tumor volume was calculated using the relationship A×B^2×0.52, where A is the longest diameter and B the shortest. […]

[2] = tested on: VEGF-induced phosphorylation of Flk1, c-Src, Akt, eNOS, FAK, Erk1/2 in HUVECs; assay: Western blot of VEGF-induced phosphorylation of angiogenic signaling molecules; type: cell-based, human; details: HUVEC, apoEdp 6–50 µM pre-treated 1 hr, VEGF 10 ng/mL 10 min, n = 5
Experimental: Figure 7 Inhibition by apoEdp of VEGF-induced Flk-1. HUVECs were pre-treated with apoEdp at the indicated concentrations for 1 hr; VEGF (10 ng/mL) added and incubated at 37°C for 10 min, to measure the phosphorylation of Flk-1(7-A), c-Src(7-B), Akt(7-C), eNOS(7-D), FAK(7-E), and Erk1/2(7-F). Equal loading of total proteins was also measured as described in Materials and Methods. Values were normalized by arbitrarily setting the densitometry of control cell signals 1.0 (mean ± SEM, n = 5). The asterisks indicate significant differences compared with VEGF stimulation (*p<0.05, **p<0.01 and ***p<0.001).
Confluent HUVECs were grown in EBM-2 supplemented with 1% FBS for 24 hr and the medium was replaced with fresh low serum (1% FBS) media in the presence or absence of varying concentrations of apoEdp (6–50 µM). After 1 hr, VEGF was added to a concentration of 10 ng/mL and incubated for 10 min so that the phosphorylated forms of angiogenic signaling molecules could be detected. The cells were then lysed, quantified for protein concentration, and separated on 4–20% pre-cast SDS–PAGE gels. Western blots of control and treated lysates were performed with antibodies against the phospho form of Flk-1, c-Src, FAK, ERK1/2, Akt, and eNOS. […] All primary and secondary antibodies were obtained from Santa Cruz Biotechnology (Santa Cruz, CA).

Ac-LRKLRKRLLLRKLRKRLL-NH2 [apoEdp] was tested, and the “50% cytotoxicity (CC50), HUVEC viability” value (HUVEC) was “about 103 µM”, the “50% cytotoxic dose (CC50), MDA-MB-231 viability” value (MDA-MB-231 cells) was greater than 300 µM and the “Tumor growth in MDA-MB-231 xenograft” value ([1]; nude (nu/nu) mice, 40 mg/kg/day intralesional for 3 consecutive days, compared to PBS-treated controls) was “significantly inhibited tumor growth”. The “Observable toxicity during treatment” value ([1]; nude mice, 40 mg/kg/day for 3 days, data not shown) was “no sign of observable toxicity” and the “VEGF-induced phosphorylation of Flk1, c-Src, Akt, eNOS, FAK and Erk1/2” value [2] was “significantly inhibited”.
